This data set in a line: Radiochemical purity (RCP) of 99mTc labeled peptide by HPLC. In kind it is physicochemical. As to conditions: 99mTc complex, 4 μg ligand, 300 μL EtOH, ~40 mCi 99mTcO4-, average of multiple experiments; for Percent RCP at 6 hours: prepared at room temperature; for Percent RCP at 15 min: room temperature 15 min. As to the method:
To prepare the ^99mTc complex of Compound 1, 300 μL of ethanol, 50 μL of ligand solution (4 μg Compound 1), 200 μL of gentisic acid solution (20 mg), 50 μL of hydroxypropyl-γ-cyclodextrin solution (2.5 mg) 100 μL of stannous gluconate solution (40 μg of SnCl2), and ^99mTcO4^− (˜40 mCi) was added. Water was added to bring the final volume to 1.0 mL, and the reaction was heated at 100° C. for 15-20 min.
The ^99mTc labeled peptide purity was determined by HPLC using a Vydac C18 protein and peptide analytical column, 300 A pore size, 4.6×250 mm column length. The following gradient (flow rate 1 mL/min) was used: Isocratic elution 78% H2O (0.1% TFA)/22% CH3CN (0.1% TFA) for 20 min, gradient from 78% to 40% CH3CN (0.1% TFA) over 5 min, hold at 40% CH3CN (0.1% TFA) for 10 min, ramp from 40% to 78% CH3CN (0.1% TFA) over 5 min.
To prepare the ^99mTc complex, 50 μL of ligand solution (4 μg Compound 1-4), 300 μL of EtOH, 250 μL of gentisic acid solution (20 mg), 50 μL of 1SnCl2: 34 Gluconic acid (40 μg of SnCl2), and ^99mTcO4^− (˜40 mCi, Syncor) was added. Water was added to bring the final volume to 1.0 mL, and the reaction was allowed to stand at room temperature for 15 min. The solutions were then analyzed for RCP as described in Example 2.
To 50 μL of the Compound 1 solution (4 μg) was added ^99mTcO4^− (190 μL, 41.5 mCi), 0.458 mL of H2O, 50 μL of the stannous gluconate solution (40 μg of SnCl2) and 262 μL of gentisic acid solution (20 mg). The reaction was heated at 100° for 5 min. prior to HPLC analysis, which was performed using the following system: Vydac C-18 Protein and Peptide column (4.6×250 mm) eluted with 78% H2O (0.1% TFA)/22% CH3CN (0.1% TFA) for 20′, ramped from 78% to 40% H2O (0.1% TFA) in 5′, held at 40% H2O (0.1% TFA) for 10′, then ramped from 40% to 78% H2O (0.1% TFA) in 5′. Flow rate: 1 mL/min. The resulting RCP was 87.4% initially and 87.1% at 6 hours. The recovery from the vial was 67%.

The structures appear in SMILES notation.

As to `CSCCC(NC(=O)[C@H](CC(C)C)NC(=O)[C@H](Cc1cnc[nH]1)NC(=O)CNC(=O)[C@@H](NC(=O)[C@H](C)NC(=O)[C@H](Cc1c[nH]c2ccccc12)NC(=O)[C@H](CCC(N)=O)NC(=O)CCCCNC(=O)CNC(=O)[C@H](CS)NC(=O)[C@H](CO)NC(=O)CN(C)C)C(C)C)C(N)=O` (stereo partly shown) [Compound 1], the “Percent RCP at 6 hours” value was determined as 88.1%.

Regarding `CSCC[C@H](NC(=O)[C@H](CC(C)C)NC(=O)[C@H](Cc1cnc[nH]1)NC(=O)CNC(=O)[C@@H](NC(=O)[C@H](C)NC(=O)[C@H](Cc1c[nH]c2ccccc12)NC(=O)[C@H](CCC(N)=O)NC(=O)CCCCNC(=O)CNC(=O)[C@H](CS)NC(=O)CNC(=O)CN)C(C)C)C(N)=O` [Compound 4], the “Percent RCP at 6 hours” value is 83.3% and the “Percent RCP at 15 min” value was 83.3%.

Take `CSCC[C@H](NC(=O)[C@H](CC(C)C)NC(=O)[C@H](Cc1cnc[nH]1)NC(=O)CNC(=O)[C@@H](NC(=O)[C@H](C)NC(=O)[C@H](Cc1c[nH]c2ccccc12)NC(=O)[C@H](CCC(N)=O)NC(=O)CCCCNC(=O)CNC(=O)[C@H](CS)NC(=O)[C@H](CO)NC(=O)CN)C(C)C)C(N)=O` [Compound 3]: the “Percent RCP at 6 hours” value was 82.4% and the “Percent RCP at 15 min” value stood at 86.7%.

For `CSCC[C@H](NC(=O)[C@H](CC(C)C)NC(=O)[C@H](Cc1cnc[nH]1)NC(=O)CNC(=O)[C@@H](NC(=O)[C@H](C)NC(=O)[C@H](Cc1c[nH]c2ccccc12)NC(=O)[C@H](CCC(N)=O)NC(=O)CCCCNC(=O)CNC(=O)[C@H](CS)NC(=O)CNC(=O)CN(C)C)C(C)C)C(N)=O` [Compound 2], the “Percent RCP at 6 hours” value is given as 78.7% and the “Percent RCP at 15 min” value was 80.8%.

For the origin of these results see patent publication US7556795B2, “Radiopharmaceutical formulations” (Bracco Imaging S.p.A., priority 2002, dated 2009).
